These results are taken from patent publication US11590139B2, “Substituted aminopurine compounds, compositions thereof, and methods of treatment therewith” (Signal Pharmaceuticals, LLC, priority 2014, dated 2023).

Structures are written as SMILES.

In one assay the test system is Lox-IMVI melanoma cell line. Briefly: Lox-IMVI anti-proliferative assay (growth inhibition, Cell Titer-Glo). It counts as cell-based, human. The note with it: Homo sapiens; IC50 activity level in the cell-based Lox-IMVI anti-proliferative assay; read-out: Activity. On the procedure: Determination of the Growth Inhibitory Effect of Aminopurine Compounds. The Lox-IMVI melanoma cell line (Source: NCI-DCTD, catalog No. 0507283) was maintained and tested in RPMI+10% FBS. The seeding density for the cell line was optimized to ensure assay linearity in 384-well plates.
Increasing concentrations of Aminopurine Compound (0.5 nM to 10 μM) were spotted in a 10-point serial dilution fashion (3-fold dilution) in duplicate within the plate via an acoustic dispenser (EDC ATS-100) into an empty 384-well plate. The dimethyl sulfoxide (DMSO) concentration was kept constant for a final assay concentration of 0.2% DMSO. Prior to testing, cells were grown and expanded in culture flasks to provide sufficient amounts of starting material. Cells were then diluted to their desired densities and added directly to the compound-spotted 384-well plates. Cells were allowed to grow for 72 hours in 5% CO2 at 37° C. At the time when exposure of cells to compound began (t0), initial cell number was assessed via a viability assay (Cell Titer-Glo) by quantifying the level of luminescence generated by adenosine-5′-triphosphate (ATP) present in viable cells. After 72 hours, cell viability of compound-treated cells was assessed via Cell Titer-Glo Luminescent Cell Viability Assay (Promega Corporation, Madison, Wis.) and read for luminescence.
All data was normalized and represented as a percentage of the DMSO-treated control cells after 72 h. Results were expressed as a IC50 value, which is the compound concentration required to inhibit 50% of the untreated control cells during the 72 hours of treatment.
A Four Parameter Logistic Model (Sigmoidal Dose-Response Model) was used to determine the compound's IC50. y=(A+((B−A)/(1+((C/x)^D))))
wherein: • A=YMin • B=YMax • C=EC50 • D=Hill Slope • IC50 is the compound concentration when Y=50% of DMSO control • Y=Luminescence unit
All inhibition curves were processed and evaluated using XLFit and Activity Base (IDBS).
(ATP-based viability assays read luminescence as a measure of living cells.)
For `NC(=O)[C@H]1CC[C@@H](n2c(Nc3c(F)cccc3Cl)nc3cnc(NC4CC(F)(F)C4)nc32)CC1` [Example 225, (1s,4s)-4-(8-(2-chloro-6-fluorophenylamino)-2-(3,3-difluorocyclobutylamino)-9H-purin-9-yl)cyclohexanecarboxamide], the IC50 was > 1 µM.

For the compound `Cc1cc(Cl)cc(Cl)c1Nc1nc2cnc(NC3CCOCC3)nc2n1[C@H]1CC[C@@H](C(N)=O)CC1` [Example 103, (1s,4s)-4-(8-(2,4-dichloro-6-methylphenylamino)-2-(tetrahydro-2H-pyran-4-ylamino)-9H-purin-9-yl)cyclohexanecarboxamide], the IC50 is > 1 µM.

On to `NC(=O)[C@H]1CC[C@@H](n2c(Nc3c(Cl)cc(Cl)cc3Cl)nc3cnc(NC4CCS(=O)(=O)CC4)nc32)CC1` [Example 92, (1s,4s)-4-(2-((1,1-dioxidotetrahydro-2H-thiopyran-4-yl)amino)-8-((2,4,6-trichlorophenyl)amino)-9H-purin-9-yl)cyclohexane-1-carboxamide], for which the IC50 was > 1 µM.

Regarding `NC(=O)[C@H]1CC[C@@H](n2c(Nc3ccc(Cl)c(Cl)c3F)nc3cnc(NC4CCOCC4)nc32)CC1` [Example 112, (1s,4s)-4-(8-(3,4-dichloro-2-fluorophenylamino)-2-(tetrahydro-2H-pyran-4-ylamino)-9H-purin-9-yl)cyclohexanecarboxamide], the IC50 fell in the range of 0.25 to 0.5 µM.

As to `C[C@@H](CO)Nc1ncc2nc(Nc3c(F)cc(F)cc3Cl)n([C@H]3CC[C@@H](C(N)=O)CC3)c2n1` [Example 136, (1R,4s)-4-(8-(2-chloro-4,6-difluorophenylamino)-2-((S)-1-hydroxypropan-2-ylamino)-9H-purin-9-yl)cyclohexanecarboxamide], the IC50 fell in the range of 0.5 to 1 µM.

Consider `C[C@@H](CO)Nc1ncc2nc(Nc3cccc(Cl)c3F)n([C@H]3CC[C@@H](C(N)=O)CC3)c2n1` [Example 172, (1R,4s)-4-(8-(3-chloro-2-fluorophenylamino)-2-((S)-1-hydroxypropan-2-ylamino)-9H-purin-9-yl)cyclohexanecarboxamide], for which the IC50 is > 1 µM.

`C[C@@H](CO)Nc1ncc2nc(Nc3c(Cl)cc(Cl)cc3Cl)n([C@H]3CC[C@@H](C(N)=O)CC3)c2n1` [Example 165, (1R,4s)-4-(2-((S)-1-hydroxypropan-2-ylamino)-8-(2,4,6-trichlorophenylamino)-9H-purin-9-yl)cyclohexanecarboxamide]: the IC50 was in the range of 0.25 to 0.5 µM.

For `Cc1cc(F)cc(F)c1Nc1nc2cnc(NC3CCOCC3)nc2n1[C@H]1CC[C@@H](C(N)=O)CC1` [Example 86, (1s,4s)-4-(8-(2,4-difluoro-6-methylphenylamino)-2-(tetrahydro-2H-pyran-4-ylamino)-9H-purin-9-yl)cyclohexanecarboxamide], the IC50 is > 1 µM.

For `C[C@H](CO)Nc1ncc2nc(Nc3c(Cl)cc(F)cc3Cl)n([C@H]3CC[C@@H](C(N)=O)CC3)c2n1` [Example 131, (1S,4s)-4-(8-(2,6-dichloro-4-fluorophenylamino)-2-((R)-1-hydroxypropan-2-ylamino)-9H-purin-9-yl)cyclohexanecarboxamide], the IC50 was > 1 µM.

As to `NC(=O)[C@H]1CC[C@@H](n2c(Nc3c(F)cc(F)cc3Cl)nc3cnc(N[C@H]4C[C@H](O)C4)nc32)CC1` [Example 282, (1s,4s)-4-(8-(2-chloro-4,6-difluorophenylamino)-2-((1R,3r)-3-hydroxycyclobutylamino)-9H-purin-9-yl)cyclohexanecarboxamide], the IC50 is > 1 µM.

Consider `CC[C@@H](CO)Nc1ncc2nc(Nc3cccc(Cl)c3F)n([C@H]3CC[C@@H](C(N)=O)CC3)c2n1` [Example 150, (1R,4s)-4-(8-(3-chloro-2-fluorophenylamino)-2-((S)-1_ hydroxybutan-2-ylamino)-9H-purin-9-yl)cyclohexanecarboxamide], for which the IC50 is > 1 µM.

For the compound `NC(=O)[C@H]1CC[C@@H](n2c(Nc3c(Cl)cccc3Cl)nc3cnc(N[C@H]4C[C@H](O)C4)nc32)CC1` [Example 280, (1s,4s)-4-(8-(2,6-dichlorophenylamino)-2-((1r,3r)-3-hydroxycyclobutylamino)-9H-purin-9-yl)cyclohexanecarboxamide], the IC50 was > 1 µM.

For the compound `Cc1cc(Cl)cc(F)c1Nc1nc2cnc(NC3CCOCC3)nc2n1[C@H]1CC[C@@H](C(N)=O)CC1` [Example 75, (1s,4s)-4-(8-(4-chloro-2-fluoro-6-methylphenylamino)-2-(tetrahydro-2H-pyran-4-ylamino)-9H-purin-9-yl)cyclohexanecarboxamide], the IC50 is > 1 µM.

The assay is the same for the next values; noted with them: Homo sapiens; Lox-IMVI anti-proliferative assay, IC50 activity level; read-out: Activity.
As for `CC(C)Nc1ncc2nc(Nc3c(F)cc(C#N)cc3Cl)n([C@H]3CC[C@@H](C(N)=O)CC3)c2n1` [Example 430, (1s,4s)-4-(8-(2-chloro-4-cyano-6-fluorophenylamino)-2-(isopropylamino)-9H-purin-9-yl)cyclohexanecarboxamide], the IC50 is 0.5 to 1 µM.

As for `NC(=O)[C@H]1CC[C@@H](n2c(Nc3c(Cl)cc(Cl)cc3Cl)nc3cnc(N[C@H]4CCC[C@H](O)C4)nc32)CC1` [Example 461, (1R,4s)-4-(2-((1S,3S)-3-hydroxycyclohexylamino)-8-(2,4,6-trichlorophenylamino)-9H-purin-9-yl)cyclohexanecarboxamide], the IC50 was > 1 µM.

On to `NC(=O)[C@H]1CC[C@@H](n2c(Nc3c(Cl)cc(C(F)(F)F)cc3Cl)nc3cnc(NC4CCCOCC4)nc32)CC1` (stereo partly shown) [Example 544, (1s,4s)-4-(8-(2,6-dichloro-4-(trifluoromethyl)phenylamino)-2-(oxepan-4-ylamino)-9H-purin-9-yl)cyclohexanecarboxamide], for which the IC50 is > 1 µM.

As to `NC(=O)[C@H]1CC[C@@H](n2c(Nc3c(F)cccc3Cl)nc3cnc(N[C@@H]4CCCC[C@H](O)C4)nc32)CC1` [Example 436, (1S,4s)-4-(8-(2-chloro-6-fluorophenylamino)-2-((1R,3S)-3-hydroxycycloheptylamino)-9H-purin-9-yl)cyclohexanecarboxamide], the IC50 was > 1 µM.

Regarding `C[C@]1(C(N)=O)CC[C@@H](n2c(Nc3c(F)cc(F)cc3Cl)nc3cnc(NC4CCC(F)(F)CC4)nc32)CC1` [Example 527, (1s,4s)-4-(8-(2-chloro-4,6-difluorophenylamino)-2-(4,4-difluorocyclohexylamino)-9H-purin-9-yl)-1-methylcyclohexanecarboxamide], the IC50 is < 0.25 µM.

For `NC(=O)[C@H]1CC[C@@H](n2c(Nc3c(Cl)cc(F)cc3Cl)nc3cnc(N[C@@H]4CCC(F)(F)C4)nc32)CC1` [Example 586, (1S,4s)-4-(8-(2,6-dichloro-4-fluorophenylamino)-2-((R)-3,3-difluorocyclopentylamino)-9H-purin-9-yl)cyclohexanecarboxamide], the IC50 is < 0.25 µM.

As for `NC(=O)[C@H]1CC[C@@H](n2c(Nc3c(F)cc(F)cc3F)nc3cnc(N[C@H]4CCC(F)(F)C4)nc32)CC1` [Example 593, (1R,4s)-4-(2-((S)-3,3-difluorocyclopentylamino)-8-(2,4,6-trifluorophenylamino)-9H-purin-9-yl)cyclohexanecarboxamide], the IC50 is 0.25 to 0.5 µM.

Consider `NC(=O)[C@H]1CC[C@@H](n2c(Nc3c(F)cc(F)cc3Cl)nc3cnc(N[C@@H]4CCC[C@@H](O)C4)nc32)CC1` [Example 420, (1S,4s)-4-(8-(2-chloro-4,6-difluorophenylamino)-2-((1R,3R)-3-hydroxycyclohexylamino)-9H-purin-9-yl)cyclohexanecarboxamide], for which the IC50 was > 1 µM.

Staying with this assay, now noted: Homo sapiens; Lox-IMVI melanoma cell line, anti-proliferative assay; read-out: Activity (IC50 activity level).
Take `C[C@]1(C(N)=O)CC[C@@H](n2c(Nc3c(F)cc(C#N)cc3Cl)nc3cnc(N[C@H]4CCC[C@H](O)C4)nc32)CC1` [Example 615, (1R,4s)-4-(8-(2-chloro-4-cyano-6-fluorophenylamino)-2-((1S,3S)-3-hydroxycyclohexylamino)-9H-purin-9-yl)-1-methylcyclohexanecarboxamide]: the IC50 was < 0.25 µM.

For the compound `C[C@]1(C(N)=O)CC[C@@H](n2c(Nc3c(Cl)cc(Cl)cc3Cl)nc3cnc(N[C@H]4CCC[C@H](O)C4)nc32)CC1` [Example 611, (1R,4s)-4-(2-((1S,3S)-3-hydroxycyclohexylamino)-8-(2,4,6-trichlorophenylamino)-9H-purin-9-yl)-1-methylcyclohexanecarboxamide], the IC50 is < 0.25 µM.

Consider `NC(=O)[C@H]1CC[C@@H](n2c(Nc3c(F)cc(Cl)cc3F)nc3cnc(N[C@H]4CCOC[C@H]4F)nc32)CC1` [Example 672, (1R,4s)-4-(8-(4-chloro-2,6-difluorophenylamino)-2-((3S,4S)-3-fluorotetrahydro-2H-pyran-4-ylamino)-9H-purin-9-yl)cyclohexanecarboxamide], for which the IC50 was < 0.25 µM.

Regarding `C[C@]1(C(N)=O)CC[C@@H](n2c(Nc3c(F)cc(Cl)cc3F)nc3cnc(N[C@H]4CCC[C@H](O)C4)nc32)CC1` [Example 614, (1R,4s)-4-(8-(4-chloro-2,6-difluorophenylamino)-2-((1S,3S)-3-hydroxycyclohexylamino)-9H-purin-9-yl)-1-methylcyclohexanecarboxamide], the IC50 is < 0.25 µM.
